Test results published in article PMC7997579, “Synthetic Lethality in Pancreatic Cancer: Discovery of a New RAD51-BRCA2 Small Molecule Disruptor That Inhibits Homologous Recombination and Synergizes with Olaparib” (Journal of Medicinal Chemistry, 2020).
Like-named read-outs stand apart in the source and are kept apart here.

Tests used:
BRC4–RAD51 interaction = molecular target: T1, BRC4–RAD51 interaction (Homo sapiens, UniProt Q06609); assay: Competitive biochemical ELISA assay (biotinylated BRC4 peptide vs RAD51); type: binding
T1 construct: purchased Creative Biomart (RAD51); Life Technologies (BRC4 peptide)
T1 sequence (Q06609 1-339): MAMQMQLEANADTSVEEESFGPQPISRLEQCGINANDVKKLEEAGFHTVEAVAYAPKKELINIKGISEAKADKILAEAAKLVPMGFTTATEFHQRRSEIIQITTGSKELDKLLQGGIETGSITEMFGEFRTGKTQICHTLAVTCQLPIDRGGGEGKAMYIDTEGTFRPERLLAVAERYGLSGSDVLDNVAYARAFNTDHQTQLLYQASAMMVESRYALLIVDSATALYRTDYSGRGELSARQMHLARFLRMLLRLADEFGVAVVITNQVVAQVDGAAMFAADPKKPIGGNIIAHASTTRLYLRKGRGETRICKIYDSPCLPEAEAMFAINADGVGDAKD
In short: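 Plates coated with N-terminally biotinylated BRC4 peptide were blocked (1% BSA/PBST) and hybridised overnight with human RAD51. Compounds were tested from 0.01 to 100 μM in triplicate (1% DMSO); bound RAD51 was detected by anti-RAD51 and HRP-secondary antibodies with TMB colorimetric read-out.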

BxPC-3 = assay: Cytotoxicity assay (CellTox Green), cell death; type: cell-based, human; settings: BxPC3, 72 h
Method: Cell death was assessed by applying the CellTox Green cytotoxicity assay (Promega). Briefly, BxPC-3 (1 × 10^4/well) were plated in 96-well plates and treated for 72 h with olaparib (10 μM) and the BRCA2-RAD51 disruptors administered alone or in combination. At the end of treatment, the CellTox dye was added to cell cultures and the green fluorescence signal, which is produced by the binding interaction with dead cell DNA, was measured following the manufacturer’s instructions.

BxPC-3 cells = assay: Immunofluorescence of nuclear γ-H2AX foci (DNA damage); type: cell-based, human; settings: BxPC-3, 48 h, 20 μM 35d + 10 μM olaparib vs olaparib alone
Method: (§1) To evaluate DNA damage through γH2AX nuclear foci, BXPC3 and Capan1 cells were seeded on glass coverslips in 6-well tissue culture plate (2 × 10^5 cells/well) and allowed to adhere overnight. After 48 h treatment with olaparib (10 μM) or 35d (20 μM) given alone or in combination, cultures growing on coverslips were fixed and treated as described above. For this experiment, the used antibodies were a rabbit polyclonal anti-γH2AX (Abcam, 1:1000 in 5% BSA/PBS) and a secondary anti-rabbit rhodamine-labeled (Novus Biologicals, 1:1000 in 1% BSA/PBS). For both experiments, images were acquired using a Nikon fluorescent microscope equipped with filters for FITC, TRITC, and DAPI. The percentage of cells bearing nuclear foci was estimated by two independent observers, by analyzing 100–250 cells for each treatment sample.

Capan-1 cells [1] = assay: as above; type: cell-based, human; settings: Capan-1, 48 h, 20 μM 35d coadministered with 10 μM olaparib vs olaparib alone
Method: as §1

Capan-1 cells [2] = assay: Cell viability assay (antiproliferative effect), association with olaparib; type: cell-based, human
Method: (§2) Finally, the antiproliferative effect of the 35d/olaparib combination was also studied on the HR-defective Capan-1 culture and on a non-neoplastic cell line derived from human kidney (HK-2). Moreover, to evaluate the antineoplastic potency of the 35d/olaparib association, we also calculated the combination index (CI) of the two compounds, using the procedure previously described[30],[31] (Figure 9).
(§3) Cell viability was assessed with the CellTiter-Glo luminescent cell viability assay from Promega. For this experiment, 1 × 10^4 cells in 200 μL of culture medium were seeded into each well of a 96-multiwell white body plate and allowed to adhere overnight. After 72 h incubation in the presence of olaparib (10 μM) and the RAD51-BRCA2 disruptors alone or in combination, the plate was allowed to equilibrate at room temperature for 30 min and the CellTiter-Glo reactive was directly added to each well. The plate was kept on a shaker for 10 min to induce cell lysis, and its luminescence was measured with a Fluoroskan Ascent FL reader (Labsystems).

HK-2 = assay: as above; type: cell-based, human; settings: HK-2, 72 h, 10 μM olaparib; two-way ANOVA
Method: as §2, §3

CCC(=O)N1N=C(c2c(-c3ccccc3)c3cc(Cl)ccc3[nH]c2=O)CC1c1ccc(OC)cc1 (stereo not drawn) [Compound 35d, 6-Chloro-3-(5-(4-methoxyphenyl)-1-propionyl-4,5-dihydro-1H-pyrazol-3-yl)-4-phenylquinolin-2(1H)-one]
EC50 (BRC4–RAD51 interaction; Table 2, compounds selected for cell-based study, read-out: EC50 ELISA): 19 ± 1 µM
EC50 (BRC4–RAD51 interaction; competition with BRC4 for RAD51, triplicate, ± standard deviation, NA = not active, racemic mixtures unless enantiomer named, read-out: EC50 (μM) on ELISA assay): 19 ± 1 µM
cell death, effect of olaparib coadministration (BxPC-3; 20 μM 35d + 10 μM olaparib, p < 0.0001): markedly increased and statistically significant
cell death, effect of olaparib coadministration (BxPC-3; 10–15 μM 35d + 10 μM olaparib): no statistically significant increase
γ-H2AX labeling in nuclei (BxPC-3 cells): increased
γ-H2AX labeling in nuclei (Capan-1 cells [1]): not further enhanced
antiproliferative effect of 35d/olaparib (Capan-1 cells [2]; Capan-1, 72 h, 10 μM olaparib, two-way ANOVA): significantly increased antiproliferative effects
combination index (CI) with olaparib (Capan-1 cells [2]; Capan-1, all tested doses of 35d + 10 μM olaparib): ~1
antiproliferative effect of 35d/olaparib vs olaparib (HK-2): no dose of 35d appeared to significantly increase
